Reference: patent US10179785B2, “Imidazotriazinone or imidazopyrazinone derivatives, and use thereof” (ST PHARM CO., LTD., priority 2014, dated 2019)
pIC50: −log10 of the molar value.

What follows are compounds tested against T1, tankyrase 1 (Homo sapiens, UniProt O95271) (assay: Analysis of activity of tankyrase 1 (Trevigen kit, ELISA absorbance at 450 nm)). Conditions: Trevigen kit Cat. No. 4700-096-K; reaction at rt for 30 min; read-out: TNKS1 (IC50).
T1 construct: purchased Trevigen 4700-096-K
T1 sequence (O95271 1-1327): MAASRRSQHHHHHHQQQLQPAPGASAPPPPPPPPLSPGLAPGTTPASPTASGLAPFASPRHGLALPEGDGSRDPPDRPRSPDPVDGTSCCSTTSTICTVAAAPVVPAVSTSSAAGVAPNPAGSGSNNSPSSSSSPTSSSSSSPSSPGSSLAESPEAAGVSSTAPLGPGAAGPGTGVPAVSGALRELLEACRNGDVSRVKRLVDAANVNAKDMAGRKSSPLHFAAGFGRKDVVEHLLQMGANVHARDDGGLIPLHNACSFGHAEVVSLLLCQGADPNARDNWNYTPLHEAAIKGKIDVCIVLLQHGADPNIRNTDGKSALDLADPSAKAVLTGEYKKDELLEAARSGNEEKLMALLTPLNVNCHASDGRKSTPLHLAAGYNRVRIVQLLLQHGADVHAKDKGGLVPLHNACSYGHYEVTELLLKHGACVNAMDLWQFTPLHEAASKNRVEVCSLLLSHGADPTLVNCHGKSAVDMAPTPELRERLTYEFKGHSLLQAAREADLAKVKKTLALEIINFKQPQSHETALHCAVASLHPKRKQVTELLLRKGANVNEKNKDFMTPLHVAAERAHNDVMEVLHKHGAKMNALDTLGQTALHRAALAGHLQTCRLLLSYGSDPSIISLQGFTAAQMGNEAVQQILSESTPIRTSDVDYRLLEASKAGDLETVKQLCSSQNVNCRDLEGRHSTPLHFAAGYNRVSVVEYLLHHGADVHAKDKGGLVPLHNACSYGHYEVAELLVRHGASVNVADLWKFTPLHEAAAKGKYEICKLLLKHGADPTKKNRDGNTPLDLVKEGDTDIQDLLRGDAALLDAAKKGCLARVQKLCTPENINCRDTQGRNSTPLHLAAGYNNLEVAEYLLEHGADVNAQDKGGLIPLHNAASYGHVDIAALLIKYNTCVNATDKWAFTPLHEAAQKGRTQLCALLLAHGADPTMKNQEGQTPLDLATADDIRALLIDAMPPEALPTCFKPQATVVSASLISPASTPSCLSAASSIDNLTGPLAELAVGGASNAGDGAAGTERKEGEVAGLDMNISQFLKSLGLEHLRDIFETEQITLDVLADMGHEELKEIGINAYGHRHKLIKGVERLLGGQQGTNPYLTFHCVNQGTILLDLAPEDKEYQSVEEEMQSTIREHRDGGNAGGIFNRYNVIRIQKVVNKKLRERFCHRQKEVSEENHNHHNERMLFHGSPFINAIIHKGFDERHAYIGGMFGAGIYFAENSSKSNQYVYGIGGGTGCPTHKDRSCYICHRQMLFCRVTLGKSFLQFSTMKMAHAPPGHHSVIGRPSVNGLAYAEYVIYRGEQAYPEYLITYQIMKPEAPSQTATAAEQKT
Assay type: biochemical
Experimental: Activities of novel compounds synthesized according to Examples 1 to 48 against tankyrase 1 were analyzed using a Trevigen kit (Cat. No. 4700-096-K). Poly PAR histone protein-coated 96-well plate, anti-PAR monoclonal antibody and goat anti-mouse IgG-HRP were used for measurement of absorbance by ELISA method. Specifically, 20× I-PAR assay buffer was diluted to 1× by adding water, and 50 μL of the diluted buffer was added to each well of the 96-well plate followed by reacting at rt for 30 min. Then, the supernatant was completely removed from each well and 10 μL of 1× I-PAR assay buffer and 15 μL of assay substrate were added to each well along with 1 μL of a 50× solution of inhibitors to be tested, which were the compounds obtained in the Examples 1 to 48. 10 m Units/μL of tankyrase 1 enzyme was diluted 50-fold with 1× I-PAR assay buffer and 25 μL of the diluted enzyme was added to each well and reacted while stirring at rt for 30 min. One without any compound of the present invention was used as a positive control and another containing 1× I-PAR assay buffer with the same volume instead of tankyrase 1 enzyme was used as a negative control. Upon completion of the reaction, 200 μL of PBSX, which was prepared by adding 0.1% triton X-100 to PBS, was added and removed and this washing process was repeated twice. Washing was repeated twice more using PBS in the same manner. 5× antibody diluent was diluted with distilled water to 1× concentration, 50 μL of the diluted goat anti-mouse IgG-HRP to 1/2000 was added to each well and reacted while stirring at rt for 30 min. Washes were carried out twice using PBSX and PBS, respectively. After addition of 50 μL of TACS-sapphire to each well of the plate, the plate was blocked from light to react for 10 min to 15 min and the color of the reaction solution turned blue. To stop the reaction, 50 μL of 0.2N HCl was added to turn the solution yellow. Finally, the absorbance of the resulting solution was measured at 450 nm.

pIC50	SMILES
6.75	Cc1ncc2c(=O)[nH]c(N3CCN(c4c(F)cc(OCCN5CCN(C)CC5=O)cc4F)CC3)nn12 [compound 33, 2-(4-(2,6-Difluoro-4-(2-(4-methyl-2-oxopiperazin-1-yl)ethoxy)phenyl)piperazin-1-yl)-7-methylimidazo[1,5-f][1,2,4]triazin-4(3H)-one]
7.22	Cc1ncc2c(=O)[nH]c(N3CCN(c4c(F)cc(OCCN5CCC(N)CC5)cc4F)CC3)nn12 [compound 34, 2-(4-(4-(2-(4-Aminopiperidin-1-yl)ethoxy)-2,6-difluorophenyl)piperazin-1-yl)-7-methylimidazo[1,5-f][1,2,4]triazin-4(3H)-one]
6.99	Cc1ncc2c(=O)[nH]c(N3CCN(c4c(F)cc(OCCN5CCC(O)C5)cc4F)CC3)nn12 (stereo not shown) [compound 35, 2-(4-(2,6-Difluoro-4-(2-(3-hydroxypyrrolidin-1-yl)ethoxy)phenyl)piperazin-1-yl)-7-methylimidazo[1,5-f][1,2,4]triazin-4(3H)-one]
7.19	Cc1ncc2c(=O)[nH]c(N3CCN(c4c(F)cc(OCCN5CCC(O)CC5)cc4F)CC3)nn12 [compound 36, 2-(4-(2,6-Difluoro-4-(2-(4-hydroxypiperidin-1-yl)ethoxy)phenyl)piperazin-1-yl)-7-methylimidazo[1,5-f][1,2,4]triazin-4(3H)-one]
